In PubChem BioAssay (NCI) one finds TGI data, which are given here for eight molecules.

Where “and” joins values, the source holds several entries; their conditions need not be identical. Equal entries are not always repeated.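 Tested at 5 concentrations; 48 h exposure; 96-well plates; endpoints linearly interpolated, else capped at highest concentration. TGI: concentration producing complete growth inhibition.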 Where a SMILES comes first, the peptide text is derived from it. The star is where a group is joined. Boc = CC(C)(C)OC(=O)*; OBn = c1ccc(CO*)cc1

Test systems include RPMI-8226 leukemia; KM12 colon; NCI-H460 lung; COLO 205 colon; SK-MEL-2 melanoma; SF-539 CNS; HCT-15 colon; BT-549 breast; TK-10 renal; NCI-H226 lung; UACC-257 melanoma; HCT-116 colon; HT29 colon; MDA-MB-435; DU-145 prostate; HL-60(TB) leukemia; NCI/ADR-RES ovarian; CAKI-1 renal; OVCAR-3 ovarian; MDA-N.
Holding throughout (test): NCI-60 cell line screen, 48 h

Take `N=c1oc2ccc([N+](=O)[O-])cc2cc1C(=O)NCc1ccccc1`: the TGI in the assay on RPMI-8226 leukemia is over 100 µM; in the assay with KM12 colon it was 36.7 µM; in the assay on NCI-H460 lung, over 100 µM; with COLO 205 colon, 40.5 µM; in the assay with SK-MEL-2 melanoma, 39.1 µM; in the assay with SF-539 CNS, 33.3 µM. In addition, the TGI with HCT-15 colon came to 33.5 µM; in the assay on BT-549 breast it was 30 µM; with TK-10 renal it was 99.4 µM; with NCI-H226 lung, 26.9 µM; in the assay on UACC-257 melanoma, 38.2 µM; in the assay on HCT-116 colon, 32 µM. Further, the TGI in the assay on HT29 colon was 40.7 µM; with MDA-MB-435, 49.3 µM; in the assay on DU-145 prostate, over 100 µM; with HL-60(TB) leukemia, over 100 µM; in the assay on NCI/ADR-RES ovarian it was 33.6 µM; in the assay with CAKI-1 renal, 36.2 µM.

In the case of `COC1CC(C)C(OC)C2=CC(=O)C=C(NC(=O)/C(C)=C/C=C\C(C)C(OC(N)=O)/C(C)=C\C(C)C1OC)C2=O` (configuration not stated), the TGI in the assay with RPMI-8226 leukemia was determined as 4.39 µM; with KM12 colon, 1.43 µM; in the assay on NCI-H460 lung it was 8.37 µM; with COLO 205 colon it was 3.19 µM; in the assay with SK-MEL-2 melanoma, 21.5 µM; with SF-539 CNS, 1.04 µM. The TGI in the assay with HCT-15 colon was 3.31 µM; in the assay on TK-10 renal, 9.81 µM; in the assay with OVCAR-3 ovarian, 1.48 µM; with NCI-H226 lung, 22.4 µM; with UACC-257 melanoma, 1.8 µM; in the assay with HCT-116 colon it was 1.51 µM. For the same molecule, the TGI was determined as 15.9 µM in the assay on DU-145 prostate, 1.13 µM in the assay with HL-60(TB) leukemia and 6.6 µM in the assay on CAKI-1 renal.

`CC12CCC3[C@@H](CC3(C)C)C(O)(CCC1=O)C2` (some centres not stated): the TGI with RPMI-8226 leukemia, with KM12 colon, in the assay on COLO 205 colon, in the assay on SK-MEL-2 melanoma, in the assay with SF-539 CNS and in the assay on HCT-15 colon was over 100 µM each time. Besides, the TGI in the assay on TK-10 renal, with OVCAR-3 ovarian, in the assay with NCI-H226 lung, in the assay on UACC-257 melanoma, with HCT-116 colon and in the assay with HT29 colon was over 100 µM each time. Also, the TGI in the assay with MDA-MB-435, in the assay on DU-145 prostate, with HL-60(TB) leukemia, in the assay with NCI/ADR-RES ovarian, with MDA-N and with CAKI-1 renal was over 100 µM each time.

`COc1ccc([N+]2=NC(c3ccc([N+](=O)[O-])cc3)=NN(c3ccccc3)C2)cc1`: the TGI in the assay with RPMI-8226 leukemia was 80 µM and > 100 µM; in the assay on KM12 colon it was over 100 µM; in the assay on NCI-H460 lung, over 100 µM; in the assay with COLO 205 colon it was over 100 µM; with HCT-15 colon, over 100 µM; with TK-10 renal, over 100 µM. Further, the TGI in the assay with OVCAR-3 ovarian was over 100 µM; with NCI-H226 lung, over 100 µM; in the assay on UACC-257 melanoma, over 100 µM; in the assay on HCT-116 colon, over 100 µM; in the assay on HT29 colon, over 100 µM; in the assay on HL-60(TB) leukemia, 83.2 µM and 69.3 µM.

In the case of `CCOC(=O)NNC(=O)C1CSC(c2ccccc2)N1C(C)=O` (configuration not stated), the TGI in the assay on RPMI-8226 leukemia, in the assay with KM12 colon, with NCI-H460 lung, in the assay with COLO 205 colon, with SK-MEL-2 melanoma and in the assay on SF-539 CNS was over 100 µM in each case. In addition, the TGI in the assay with HCT-15 colon, in the assay with BT-549 breast, in the assay with TK-10 renal, in the assay with OVCAR-3 ovarian, with NCI-H226 lung and in the assay on UACC-257 melanoma was over 100 µM in each case. For the same molecule, the TGI in the assay with HCT-116 colon, in the assay on HT29 colon, in the assay with MDA-MB-435, with DU-145 prostate, with HL-60(TB) leukemia and in the assay on NCI/ADR-RES ovarian was over 100 µM throughout. The same molecule had a TGI in the assay with CAKI-1 renal of over 100 µM.

In the case of `OC1(CCc2ccccc2)COC(C(F)(F)F)(C(F)(F)F)C1` (configuration not stated), the TGI in the assay on RPMI-8226 leukemia, in the assay with KM12 colon, in the assay with NCI-H460 lung, in the assay with COLO 205 colon, in the assay with SK-MEL-2 melanoma and in the assay with SF-539 CNS was over 100 µM each time. The TGI in the assay with HCT-15 colon, in the assay with TK-10 renal, in the assay on OVCAR-3 ovarian, in the assay on NCI-H226 lung, in the assay on HCT-116 colon and in the assay on HT29 colon was over 100 µM throughout. For the same molecule, the TGI with MDA-MB-435, with DU-145 prostate, in the assay with HL-60(TB) leukemia, in the assay on NCI/ADR-RES ovarian, with MDA-N and in the assay on CAKI-1 renal was over 100 µM throughout.

For the molecule `CC(C)C(NC(=O)C(Cc1ccccc1)NC(=O)OC(C)(C)C)C(=O)NCC(=O)OCc1ccccc1` (stereo not drawn) (Boc-Phe-Val-Gly-OBn; configuration not given here), the TGI amounted to 42.5 µM in the assay with RPMI-8226 leukemia; 37.9 µM in the assay with NCI-H460 lung; 35.5 µM in the assay with COLO 205 colon; 32 µM with SK-MEL-2 melanoma; 43.3 µM with SF-539 CNS; 26.7 µM in the assay with HCT-15 colon. The TGI in the assay on TK-10 renal was found to be 27.1 µM; with OVCAR-3 ovarian, 27.9 µM; in the assay with UACC-257 melanoma it was 41.9 µM; in the assay on HCT-116 colon it was 40 µM; with HT29 colon, 38.5 µM; in the assay on MDA-MB-435, 21.9 µM. The TGI in the assay on DU-145 prostate was 28.7 µM; in the assay on HL-60(TB) leukemia, 34.4 µM; with NCI/ADR-RES ovarian, over 100 µM; in the assay with MDA-N, 33.5 µM; with CAKI-1 renal, 33.7 µM.

Turning to `COc1c2nc(CCl)[nH]c(=O)c2c(OC)c2nc(CCl)[nH]c(=O)c12`, the TGI in the assay with RPMI-8226 leukemia, with KM12 colon, in the assay with NCI-H460 lung, in the assay on COLO 205 colon, in the assay with SK-MEL-2 melanoma and with SF-539 CNS was over 100 µM in each case. Moreover, the TGI in the assay on HCT-15 colon, in the assay on TK-10 renal, with OVCAR-3 ovarian, in the assay with NCI-H226 lung, in the assay on UACC-257 melanoma and in the assay on HCT-116 colon was over 100 µM in each case. Also, the TGI in the assay on HT29 colon, with HL-60(TB) leukemia and with CAKI-1 renal was over 100 µM each time.
